The record followed here is US12559529B2, “NPY2 receptor agonists” (Boehringer Ingelheim International GmbH, priority 2019, dated 2026).

*1 amine or outer side, *2 acyl side, *3 side chain or, on linkers, in order; H or OH if unused. Where a SMILES comes first, the peptide text is derived from it. Side-chain parts run from the residue outwards. The star is where a group is joined. C18 diacid = O=C(O)CCCCCCCCCCCCCCCCC(=O)*; γGlu = O=C(O)[C@H](CCC(=O)[*:2])N[*:1]; Isovaleryl = CC(C)CC(=O)*; AEEA = NCCOCCOCC(=O)O

The target of the experiment is T1, Human Neuropeptide Y2 Receptor (Homo sapiens, UniProt P49146).
T1 construct: purchased CHEMICON HTS066M
T1 sequence (P49146 1-381): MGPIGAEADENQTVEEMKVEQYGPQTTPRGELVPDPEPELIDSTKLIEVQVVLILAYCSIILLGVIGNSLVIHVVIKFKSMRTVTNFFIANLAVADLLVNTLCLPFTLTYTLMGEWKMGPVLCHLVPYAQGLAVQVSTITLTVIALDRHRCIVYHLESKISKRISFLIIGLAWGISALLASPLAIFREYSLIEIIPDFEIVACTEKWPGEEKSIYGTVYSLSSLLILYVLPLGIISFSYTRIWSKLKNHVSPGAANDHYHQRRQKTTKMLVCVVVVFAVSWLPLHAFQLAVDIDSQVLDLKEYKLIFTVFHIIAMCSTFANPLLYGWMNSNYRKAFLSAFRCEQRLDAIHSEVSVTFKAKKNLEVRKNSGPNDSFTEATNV
The experiment in a line: Radioligand binding competition assay (RLB). To be noted: Table 3; human 125I-PYY (1-36) 0.02 nM, Y2 receptor membranes; read-out: Ki. The gist of the method:
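Membranes from cells expressing human Y2 receptor (0.5 μg protein/well) were incubated with radioligand and serially diluted peptides in 50 mM HEPES, 5 mM MgCl2, 1 mM CaCl2, 0.2% ovalbumin, pH 7.4, for 2 h at room temperature with shaking. Bound radioactivity was collected by filtration and counted; IC50 from sigmoidal nonlinear regression.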
Regarding `CC(C)CC(=O)N[C@@H](C)C(=O)N1CCC[C@H]1C(=O)N[C@@H](CCC(=O)O)C(=O)N[C@@H](CCCCNC(=O)COCCOCCNC(=O)COCCOCCNC(=O)CC[C@H](NC(=O)CCCCCCCCCCCCCCCCC(=O)O)C(=O)O)C(=O)N[C@@H](C)C(=O)N[C@@H](CCC(=O)O)C(=O)N[C@@H](CCC(=O)O)C(=O)N[C@@H](CC(=O)O)C(=O)N[C@@H](C)C(=O)N[C@@H](CO)C(=O)N1CCC[C@H]1C(=O)N[C@@H](CCC(=O)O)C(=O)N[C@@H](CCC(=O)O)C(=O)N[C@@H](CC(C)C)C(=O)N[C@@H](CCC(N)=O)C(=O)N[C@@H](CCCNC(=N)N)C(=O)N[C@@H](Cc1ccc(O)cc1)C(=O)N[C@@H](Cc1ccc(O)cc1)C(=O)N[C@H](C(=O)N[C@@H](CCC(=O)O)C(=O)N[C@@H](CC(C)C)C(=O)N[C@@H](CCCNC(=N)N)C(=O)N[C@@H](Cc1c[nH]cn1)C(=O)N[C@@H](Cc1ccc(O)cc1)C(=O)N[C@@H](Cc1ccc(O)cc1)C(=O)N[C@@H](CC(N)=O)C(=O)N[C@@H](Cc1c[nH]c2ccccc12)C(=O)N[C@@H](CC(C)C)C(=O)N[C@H](C(=O)N[C@@H](CCCNC(=N)N)C(=O)N[C@@H](CCC(N)=O)C(=O)N[C@@H](CCCNC(=N)N)C(=O)N[C@@H](Cc1ccc(O)cc1)C(N)=O)[C@@H](C)O)C(C)C` [Compound 131, N{alpha-4}-(3-methylbutanoyl)-N{epsilon-7}-[2-(2-{2-[2-(2-{2-[(4S)-4-carboxy-4-(17-carboxyheptadecanamido)butanamido]ethoxy}ethoxy)acetamido]ethoxy}ethoxy)acetamido]-[4A,7K,8A,9E,18Q,22V,23E,28Y,30W,31L]hPYY (4-36)], the Ki is 8.54 nM.

For `CC[C@H](C)[C@H](NC(=O)[C@H](CCC(=O)O)NC(=O)[C@H](CCC(=O)O)NC(=O)[C@@H]1CCCN1C(=O)[C@H](CO)NC(=O)[C@H](C)NC(=O)[C@H](CC(=O)O)NC(=O)[C@H](CCC(=O)O)NC(=O)[C@H](CCC(=O)O)NC(=O)[C@@H]1CCCN1C(=O)[C@H](CCCCNC(=O)COCCOCCNC(=O)COCCOCCNC(=O)CC[C@H](NC(=O)CCCCCCCCCCCCCCCCC(=O)O)C(=O)O)NC(=O)[C@H](CCC(=O)O)NC(=O)[C@@H]1CCCN1C(=O)[C@H](C)NC(=O)CC(C)C)C(=O)N[C@@H](CCC(N)=O)C(=O)N[C@@H](CCCNC(=N)N)C(=O)N[C@@H](Cc1ccc(O)cc1)C(=O)N[C@@H](Cc1ccc(O)cc1)C(=O)N[C@H](C(=O)N[C@@H](CCC(=O)O)C(=O)N[C@@H](CC(C)C)C(=O)N[C@@H](CCCNC(=N)N)C(=O)N[C@@H](Cc1c[nH]cn1)C(=O)N[C@@H](Cc1ccc(O)cc1)C(=O)N[C@@H](Cc1ccc(O)cc1)C(=O)N[C@@H](CC(N)=O)C(=O)N[C@@H](Cc1c[nH]c2ccccc12)C(=O)N[C@@H](CC(C)C)C(=O)N[C@H](C(=O)N[C@@H](CCCNC(=N)N)C(=O)N[C@@H](CCC(N)=O)C(=O)N[C@@H](CCCNC(=N)N)C(=O)N[C@@H](Cc1ccc(O)cc1)C(N)=O)[C@@H](C)O)[C@@H](C)O` [Compound 134, N{alpha-4}-(3-methylbutanoyl)-N{epsilon-7}-[2-(2-{2-[2-(2-{2-[(4S)-4-carboxy-4-(17-carboxyheptadecanamido)butanamido]ethoxy}ethoxy)acetamido]ethoxy}ethoxy)acetamido]-[4A,7K,9E,17I,18Q,22T,23E,28Y,30W,31L]hPYY (4-36)], the Ki was 1.17 nM. The result for `CC(C)CC(=O)N[C@@H](C)C(=O)N1CCC[C@H]1C(=O)N[C@@H](CCC(=O)O)C(=O)N[C@@H](CCCCNC(=O)COCCOCCNC(=O)COCCOCCNC(=O)CC[C@H](NC(=O)CCCCCCCCCCCCCCCCC(=O)O)C(=O)O)C(=O)N1CCC[C@H]1C(=O)N[C@@H](CCC(=O)O)C(=O)N[C@@H](C)C(=O)N[C@@H](CC(=O)O)C(=O)N[C@@H](C)C(=O)N[C@@H](CO)C(=O)N1CCC[C@H]1C(=O)N[C@@H](CCC(=O)O)C(=O)N[C@@H](CCC(=O)O)C(=O)N[C@@H](CC(C)C)C(=O)N[C@@H](CCC(N)=O)C(=O)N[C@@H](CCCNC(=N)N)C(=O)N[C@@H](Cc1ccc(O)cc1)C(=O)N[C@@H](Cc1ccc(O)cc1)C(=O)N[C@H](C(=O)N[C@@H](CCC(=O)O)C(=O)N[C@@H](CC(C)C)C(=O)N[C@@H](CCCNC(=N)N)C(=O)N[C@@H](Cc1c[nH]cn1)C(=O)N[C@@H](Cc1ccc(O)cc1)C(=O)N[C@@H](Cc1ccc(O)cc1)C(=O)N[C@@H](CC(N)=O)C(=O)N[C@@H](Cc1c[nH]c2ccccc12)C(=O)N[C@@H](CC(C)C)C(=O)N[C@H](C(=O)N[C@@H](CCCNC(=N)N)C(=O)N[C@@H](CCC(N)=O)C(=O)N[C@@H](CCCNC(=N)N)C(=O)N[C@@H](Cc1ccc(O)cc1)C(N)=O)[C@@H](C)O)C(C)C` [Compound 135, N{alpha-4}-(3-methylbutanoyl)-N{epsilon-7}-[2-(2-{2-[2-(2-{2-[(4S)-4-carboxy-4-(17-carboxyheptadecanamido)butanamido]ethoxy}ethoxy)acetamido]ethoxy}ethoxy)acetamido]-[4A,7K,9E,10A,18Q,22V,23E,28Y,30W,31L]hPYY (4-36)] reads 1.31 nM; that for `CC(C)CC(=O)N[C@@H](C)C(=O)N1CCC[C@H]1C(=O)N[C@@H](CCC(=O)O)C(=O)N[C@@H](CCCCNC(=O)COCCOCCNC(=O)COCCOCCNC(=O)CC[C@H](NC(=O)CCCCCCCCCCCCCCCCC(=O)O)C(=O)O)C(=O)N1CCC[C@H]1C(=O)N[C@@H](CCC(=O)O)C(=O)N[C@@H](C)C(=O)N[C@@H](CC(=O)O)C(=O)N[C@@H](CO)C(=O)N[C@@H](CO)C(=O)N1CCC[C@H]1C(=O)N[C@@H](CCC(=O)O)C(=O)N[C@@H](CCC(=O)O)C(=O)N[C@@H](CC(C)C)C(=O)N[C@@H](CCC(N)=O)C(=O)N[C@@H](CCCNC(=N)N)C(=O)N[C@@H](Cc1ccc(O)cc1)C(=O)N[C@@H](Cc1ccc(O)cc1)C(=O)N[C@H](C(=O)N[C@@H](CO)C(=O)N[C@@H](CC(C)C)C(=O)N[C@@H](CCCNC(=N)N)C(=O)N[C@@H](Cc1c[nH]cn1)C(=O)N[C@@H](Cc1ccc(O)cc1)C(=O)N[C@@H](Cc1ccc(O)cc1)C(=O)N[C@@H](CC(N)=O)C(=O)N[C@@H](Cc1c[nH]c2ccccc12)C(=O)N[C@@H](CC(C)C)C(=O)N[C@H](C(=O)N[C@@H](CCCNC(=N)N)C(=O)N[C@@H](CCC(N)=O)C(=O)N[C@@H](CCCNC(=N)N)C(=O)N[C@@H](Cc1ccc(O)cc1)C(N)=O)[C@@H](C)O)C(C)C` [Compound 136, N{alpha-4}-(3-methylbutanoyl)-N{epsilon-7}-[2-(2-{2-[2-(2-{2-[(4S)-4-carboxy-4-(17-carboxyheptadecanamido)butanamido]ethoxy}ethoxy)acetamido]ethoxy}ethoxy)acetamido]-[4A,7K,9E,10A,12S,18Q,22V,28Y,30W,31L]hPYY (4-36)] (Isovaleryl-APEK([AEEA-AEEA-γGlu-C18 diacid])PEADSSPEELQRYYVSLRHYYNWLTRQRY-NH2), 0.89 nM; that for `CC(C)CC(=O)N[C@@H](C)C(=O)N1CCC[C@H]1C(=O)N[C@@H](C)C(=O)N[C@@H](CCCCNC(=O)COCCOCCNC(=O)COCCOCCNC(=O)CC[C@H](NC(=O)CCCCCCCCCCCCCCCCC(=O)O)C(=O)O)C(=O)N1CCC[C@H]1C(=O)N[C@@H](CCC(=O)O)C(=O)N[C@@H](CCC(=O)O)C(=O)N[C@@H](CC(=O)O)C(=O)N[C@@H](C)C(=O)N[C@@H](CO)C(=O)N1CCC[C@H]1C(=O)N[C@@H](CCC(=O)O)C(=O)N[C@@H](CCC(=O)O)C(=O)N[C@@H](CC(C)C)C(=O)N[C@@H](CCC(N)=O)C(=O)N[C@@H](CCC(N)=O)C(=O)N[C@@H](Cc1ccc(O)cc1)C(=O)N[C@@H](Cc1ccc(O)cc1)C(=O)N[C@H](C(=O)N[C@@H](CO)C(=O)N[C@@H](CC(C)C)C(=O)N[C@@H](CCCNC(=N)N)C(=O)N[C@@H](Cc1c[nH]cn1)C(=O)N[C@@H](Cc1ccc(O)cc1)C(=O)N[C@@H](Cc1ccc(O)cc1)C(=O)N[C@@H](CC(N)=O)C(=O)N[C@@H](Cc1c[nH]c2ccccc12)C(=O)N[C@@H](CC(C)C)C(=O)N[C@H](C(=O)N[C@@H](CCCNC(=N)N)C(=O)N[C@@H](CCC(N)=O)C(=O)N[C@@H](CCCNC(=N)N)C(=O)N[C@@H](Cc1ccc(O)cc1)C(N)=O)[C@@H](C)O)C(C)C` [Compound 138, N{alpha-4}-(3-methylbutanoyl)-N{epsilon-7}-[2-(2-{2-[2-(2-{2-[(4S)-4-carboxy-4-(17-carboxyheptadecanamido)butanamido]ethoxy}ethoxy)acetamido]ethoxy}ethoxy)acetamido]-[4A,6A,7K,9E,18Q,19Q,22V,28Y,30W,31L]hPYY (4-36)], 1.42 nM.

Usually Ki stands for a measure of affinity in units of concentration, obtained from inhibition or displacement.
